As usually defined, the Ki is the dissociation constant of the complex between target and ligand, obtained from inhibition or displacement.

Each structure is given as a SMILES string.

Holding throughout (format): biochemical
Assay [1] addresses T1, catalytic domain of human matrix metalloproteinase-8 (MMP-8; neutrophil collagenase) (Homo sapiens, UniProt P22894).
T1 construct: express heterologously only the catalytic domain, rather than the entire MMP-8, in Escherichia coli; made in house; host or cells: Escherichia coli
The assay can be described thus: Inhibition of catalytic domain of human MMP-8, fluorimetric assay, Dixon plot. As to conditions: recombinant catalytic domain, Mca-Pro-Leu-Gly-Leu-Dap(Dnp)-Ala-Arg-NH2 substrate. The text has this: The catalytic domain of MMP-8 was chosen as a further test enzyme because of its high stability and constitutive activity, obviating the need for enzymatic or chemical activation, which is a well-known source of error, e.g. the commonly used organomercurial compounds used to activate pro-MMPs may interfere in subsequent assays or affect the activity of the enzyme, leading to erroneous interpretation of results. The cloning strategy was designed to express heterologously only the catalytic domain, rather than the entire MMP-8, in Escherichia coli. With the so-constructed expressed catalytic domain, we obtained a stable enzymatically active, highly pure enzyme that is well suited for routine investigation of the efficacy of the synthetic inhibitors and provides highly reproducible test results.
The cloning and expression of the recombinant catalytic domain of MMP-8 follows the protocol developed by Schnierer et al. (Schnierer, S., Kleine, T., Gote, T., Hilleman, A., Knäuper, V., and Tschesche, H., 1993, The recombinant catalytic domain of human neutrophil collagenase lacks type I collagen substrate specificity, Biochem. Biophys. Res. Commun. 191, 319-326).
(§1) The enzymatic cleavage of commercially available synthetic internally quenched fluorigenic peptide substrates such as 7-methylcoumarin-4-yl-acetyl-prolyleucyl-glycyl-leucyl-(dinitrophenyl-L-α,β-diaminopropionyl)-alanyl-arginylamide (Mca-Pro-Leu-Gly-Leu-Dap(Dnp)-Ala-Arg-NH2) at the scissile -Gly-Leu-peptide bond separates the fluorescent Mca group from the dinitrophenol quencher, resulting in a strong linear increase in fluorescence intensity that can be readily measured in a fluorimeter (λexitation328 nm, λemission 393 nm) over the first few minutes of the reaction. The specificity of the assay for matrix metalloproteinases is provided by the type I collagen-derived sequence -Pro-Leu-Gly-Leu- in the synthetic substrate, as well as by the incubation conditions. To test the efficacy of the synthetic collagenase/MMP inhibitors, the residual enzymatic activity remaining after an incubation of enzyme plus different amounts of inhibitor is measured at a fixed enzyme and substrate concentration. For each inhibitor, three test series at different fixed substrate concentrations were carried out. From the time-dependent increase in fluorescence intensity measured, the velocity (v) of the enzymatic activity can be calculated as increase in arbitrary fluorescence intensity units per minute. The inhibition constant Ki is calculated graphically by the method of Dixon (1953) by plotting the reciprocal of the reaction velocity 1/v on the ordinate, and the inhibitor concentration on the abscissa. The x-intercept of the linear plot is defined as minus K1 value.
1984 μl assay buffer (100 mM Tris-HCl pH 7,5, 100 mM NaCl, 10 mM CaCl2, 0,05% Brij 35) • 2 μl inhibitor dissolved in DMSO, or DMSO alone as a solvent control • 4 μl enzyme (MMP-2, MMP-9, or the catalytic domain of MMP-8) • 10 μl Mca-Pro-Leu-Gly-Leu-Dap(Dnp)-Ala-Arg-NH2 in DMSO Method • 1. Incubate buffer, enzyme, and inhibitor for 5 min at room temperature, with stirring. • 2. Start the reaction by adding 10 μl substrate in DMSO • 3. Record the increase in fluorescence intensity over 2 min. Confirmation of the Inhibitory Activity by Protein Zymographic Analysis

The target of assay [2] is Clostridium histolyticum collagenase (EC 3.4.24.3). The assay is described as follows: Inhibition of Clostridium histolyticum collagenase, spectrophotometric FALGPA assay. The conditions noted are these: chromogenic substrate FALGPA; read-out: C. histolyticum (50% inhibition). The text has this:
The activity of Clostidium histolyticum collagenase may be readily determined by a simple spectrophotometric assay using the synthetic chromogenic peptide substrate N-(3-[2-furyl]acryloyi)-leucine-glycine-proline-alanine (FALGPA; Van Hart, H. E. and Steinbrink, D. R. 1981, Anal. Biochem. 113, 356). The degree of inhibition of the degradation of this chromogenic substrate by the addition of the various test substances described in Table 1 may be easily quantified. The enzyme and substrate are commercially available.

For assay [3], the target named is T2, human matrix metalloproteinase-2 (MMP-2; gelatinase A) (Homo sapiens, UniProt P08253).
T2 construct: to prepare the enzymatically active mature form of the enzyme; endogenous in cells; host or cells: human dermal fibroblasts (secreted into culture supernatant)
T2 sequence (P08253 110-660): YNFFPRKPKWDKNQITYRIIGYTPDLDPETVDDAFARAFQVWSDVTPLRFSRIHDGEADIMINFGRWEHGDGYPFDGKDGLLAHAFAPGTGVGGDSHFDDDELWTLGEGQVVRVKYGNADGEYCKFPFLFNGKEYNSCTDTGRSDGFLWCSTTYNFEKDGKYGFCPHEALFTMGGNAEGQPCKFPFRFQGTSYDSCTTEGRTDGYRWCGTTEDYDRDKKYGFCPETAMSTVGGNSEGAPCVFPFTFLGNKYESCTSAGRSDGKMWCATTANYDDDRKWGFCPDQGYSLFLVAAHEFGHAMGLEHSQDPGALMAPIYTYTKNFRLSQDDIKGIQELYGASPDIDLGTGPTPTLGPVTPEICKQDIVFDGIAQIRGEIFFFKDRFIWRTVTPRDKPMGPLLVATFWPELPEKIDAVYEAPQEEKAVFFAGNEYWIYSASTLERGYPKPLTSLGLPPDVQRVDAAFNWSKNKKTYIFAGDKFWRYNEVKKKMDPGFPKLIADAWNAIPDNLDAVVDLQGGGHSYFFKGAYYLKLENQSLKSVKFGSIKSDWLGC
The assay can be described thus: Inhibition of human matrix metalloproteinase-2 (gelatinase A). As to conditions: trypsin-activated MMP-2 from human dermal fibroblast culture supernatant; read-out: MMP-2 (50% inhibition).
Text: MMP-2 is easily prepared by standard procedures from the culture medium of cultivated human fibroblasts in reasonable quantities, and is therefore readily available. […] A screening system based on the measurement of the proteolytic activity of MMP-2 was developed to analyse the inhibitory effects of the various inhibitors described in Table 1.
To this end, human dermal fibroblasts were obtained and maintained in culture using standard methods. The cell-free culture supernatant containing the secreted pro-MMP-2 was treated with trypsin. The trypsin was inactivated with the specific active-site serine proteinase inhibitor Nα-p-tosyl-L-lysine-chloromethylketone (TLCK), and the active MMP-2 was partially purified by gel filtration on Sepharose 4B. The isolated MMP-2 was identified and characterized by the use of a commercially available immunoassay.
A simple nonradioactive assay was developed to measure MMP-2 activity using gelatin as a substrate that allows both a large number of samples to be analysed in parallel and to generate kinetic data. Partially purified MMP-2 was incubated with a suitable dilution of gelatin under standardized conditions (time, buffer, pH, temperature, inhibitor, additives), and uncleaved gelatin was separated from degradation products by suction filtration through a nitrocellulose filter. High-molecular-weight gelatin is thereby bound to the nitrocellulose filter, and the low-molecular-weight gelatin-derived peptides pass through it. The nitrocellulose-bound gelatin can be stained with Ponceau S or Commassie Brilliant Blue protein stains, and the degree of staining quantified densitometrically using a commercially available electrophoresis gel documentation system supported by dedicated analytical software. The nitrocellulose filtration is conducted using a commercially available dot- or slot-blotting apparatus.
The gelatinase assay described here has been validated by comparison with results obtained with an established collagenase assay using radioactive or fluorescently labeled collagen as substrate.
as §1
1984 μl assay buffer (100 mM Tris-HCl pH 7,5, 100 mM NaCl, 10 mM CaCl2, 0,05% Brij 35) • 2 μl inhibitor dissolved in DMSO, or DMSO alone as a solvent control • 4 μl enzyme (MMP-2, MMP-9, or the catalytic domain of MMP-8) • 10 μl Mca-Pro-Leu-Gly-Leu-Dap(Dnp)-Ala-Arg-NH2 in DMSO Method • 1. […]

Assay [4] deals with T3, human matrix metalloproteinase-9 (MMP-9; gelatinase B) (Homo sapiens, UniProt P14780).
T3 construct: from tissue; host or cells: human buffy coat (blood leukocytes)
T3 sequence (P14780 107-707 limits assumed): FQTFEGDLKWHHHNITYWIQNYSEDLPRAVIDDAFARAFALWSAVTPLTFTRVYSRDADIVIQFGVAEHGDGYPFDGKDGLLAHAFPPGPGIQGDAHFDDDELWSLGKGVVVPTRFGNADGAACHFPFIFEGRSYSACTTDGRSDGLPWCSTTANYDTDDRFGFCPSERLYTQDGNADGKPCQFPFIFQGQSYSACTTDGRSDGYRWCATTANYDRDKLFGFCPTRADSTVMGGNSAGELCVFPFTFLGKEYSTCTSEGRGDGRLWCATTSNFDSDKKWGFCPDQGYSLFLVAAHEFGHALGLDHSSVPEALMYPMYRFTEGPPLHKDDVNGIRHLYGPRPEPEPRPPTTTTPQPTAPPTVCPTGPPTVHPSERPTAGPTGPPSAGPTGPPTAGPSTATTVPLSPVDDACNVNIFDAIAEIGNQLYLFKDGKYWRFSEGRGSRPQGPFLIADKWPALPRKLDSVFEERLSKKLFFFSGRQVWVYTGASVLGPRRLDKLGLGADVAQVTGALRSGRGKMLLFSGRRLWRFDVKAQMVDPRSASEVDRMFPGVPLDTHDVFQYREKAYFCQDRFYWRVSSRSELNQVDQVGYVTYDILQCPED
The assay is described as follows: Inhibition of human matrix metalloproteinase-9 (gelatinase B). The conditions noted are these: trypsin-activated native MMP-9 from human buffy coat; read-out: MMP-9 (50% inhibition). Here is the method:
Native MMP-9 was reproducibly obtained with reasonable yield and purity from human buffy coat. Buffy coat, to which was added an appropriate volume of 10% (v/v) Triton-X-100 to obtain a final concentration of 0,4% detergent, was shaken on ice for 30 min; then, one volume of twofold-concentrated binding buffer (40 mM Tris-HCl pH 7,5, 10 mM CaCl2, 1 M NaCl, 0,2% (v/v) Triton X-100 was added and the mixture shaken on ice for a further 30 min.
The mixture was then centrifuged for 15 min at 16,000 rpm (30,590×g) in a Kendro SS-34 rotor at 4° C. and the resulting supernatant filtered over glass wool. The filtrate was incubated batchwise with gelatin-agarose equilibrated in binding buffer for 1 h on ice with continuous shaking The MMP-9-bound gelatin-agarose was then loaded into a chromatographic tube and the column washed with at least ten bed volumes of binding buffer, or until no protein was detected by absorbance at 280 nm in the wash buffer. MMP-9 was eluted from the gelatin affinity column by application of two bed volumes of binding buffer containing 5% (v/v) dimethylsulfoxide (DMSO).
The eluate was applied to a gel filtration column of Sephadex G-75 both to exchange buffer and to eliminate small amounts of contaminating MMP-2. The G-75 column was prepared and eluted with Buffer I [20 mM Tris-HCl pH 7,5, 5 mM CaCl2, 100 mM NaCl, 0,1% (v/v) Triton X-100].
The eluted MMP-9 includes the three characterized forms of the enzyme: monomer, homodimer, and heterodimer (complex with lipokalin). The purity of MMP-9 was estimated to be ca. 90%, with the remaining contaminating protein being fibronectin and small amounts of TIMPS.
The latent MMP-9 was activated by a 30-60 min incubation at 37° C. with 1/100 vol trypsin (10 mg ml^−1). The trypsin was subsequently inactivated by addition of the serine proteinase inhibitor phenlymethylsulfonylfluoride (PMSF) or the more specific trypsin inhibitor TLCK.
as §1
1984 μl assay buffer (100 mM Tris-HCl pH 7,5, 100 mM NaCl, 10 mM CaCl2, 0,05% Brij 35) • 2 μl inhibitor dissolved in DMSO, or DMSO alone as a solvent control • 4 μl enzyme (MMP-2, MMP-9, or the catalytic domain of MMP-8) • 10 μl Mca-Pro-Leu-Gly-Leu-Dap(Dnp)-Ala-Arg-NH2 in DMSO Method • 1. Incubate buffer, enzyme, and inhibitor for 5 min at room temperature, with stirring. • 2. Start the reaction by adding 10 μl substrate in DMSO • 3. Record the increase in fluorescence intensity over 2 min. […]

T1 sequence (P22894 100-262 limits assumed): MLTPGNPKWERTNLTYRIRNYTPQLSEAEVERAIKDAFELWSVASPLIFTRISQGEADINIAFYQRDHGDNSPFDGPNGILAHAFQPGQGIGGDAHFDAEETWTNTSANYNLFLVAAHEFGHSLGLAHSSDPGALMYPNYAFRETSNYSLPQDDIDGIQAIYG

In the case of `CCn1c(=O)c2ccccc2n(CCS)c1=O` [Example 8, 3-ethyl-1-(2-mercaptoethyl)-chinazolin-2,4(1H,3H)-dione], the “MMP-8 (Ki value)” value in assay [1] is on record as “negative”. Also, the IC50 in assay [2] was determined as 39.4 µM.
Turning to `CC(C)(S)Cn1c(=O)[nH]c(=O)c2ccccc21` [Example 2, 1-(2-mercapto-2-methylpropyl)-chinazolin-2,4(1H,3H)-dione], the “MMP-8 (Ki value)” value in assay [1] was “negative”. Also, the IC50 in assay [3] stood at 143 µM.
As for `CC(CS)Cn1c(=O)[nH]c2ccccc2c1=O` (racemic) [Example 19, (R,S)-3-[3-(2-methyl)-mercaptopropyl]chinazolin-2,4(1H,3H)-dione], in assay [1], the Ki is 3 µM. For the same molecule, in assay [3], the IC50 is 7.1 µM.
Turning to `Cn1c(=O)c2ccccc2n(CCCSCC(=O)NO)c1=O` [Example 20, N-hydroxy-2-[3-(methyl-2,4-dioxo-3,4-dihydro-2H-chinazolin-1-yl)-propylsulfanyl]acetamide], the IC50 in assay [4] is 71.4 µM.
For `COc1cc2c(=O)n(C)c(=O)n(CCS)c2cc1OC` [Example 10, 6,7-dimethoxy-1-(2-mercaptoethyl)-3-methyl-chinazolin-2,4(1H,3H)-dione], the IC50 stood at 31.5 µM in assay [2] and 6.3 µM in assay [3].
Consider `O=c1[nH]c2ccccc2c(=O)n1CCCCCS` [Example 13, 3-(5-mercaptopent-1-yl)-chinazolin-2,4(1H,3H)-dione], for which the inhibitory constant (Ki) in assay [1] was 20 µM.
As to `Cn1c(=O)c2ccccc2n(CCS)c1=O` [Example 6, 1-(2-mercaptoethyl)-3-methylchinazolin-2,4(1H,3H)-dione], the “MMP-8 (Ki value)” value in assay [1] is on record as “negative”. Also, the IC50 was found to be 13.1 µM in assay [2] and 97.1 µM in assay [3].
For `CC(S)Cn1c(=O)[nH]c(=O)c2ccccc21` (racemic) [Example 1, (R,S)-1-(2-mercaptopropyl)-chinazolin-2,4(1H,3H)-dione], in assay [1], the Ki is 33.3 µM. The results for the IC50 in assay [2] and in assay [3] were 21 µM and 23.3 µM, respectively.
On to `O=c1c2ccccc2n(CCS)c(=O)n1Cc1ccccc1` [Example 11, 3-benzyl-1-(2-mercaptoethyl)-chinazolin-2,4(1H,3H)-dione], for which the Ki in assay [1] was found to be 33.3 µM. In addition, the IC50 in assay [2] was 22.4 µM.
Turning to `CCn1c(=O)c2ccccc2n(CCCS)c1=O` [Example 9, 3-ethyl-1-(3-mercaptoprop-1-yl)-chinazolin-2,4(1H,3H)-dione], the IC50 in assay [4] was found to be 43.4 µM; in assay [3], 13.9 µM.

The record behind these values is patent publication US6872727B1, “Polycyclic pyrimidine -2,4(1H,3H)-diones with functionalized alkyl residues at the 1- and/or 3-position(s); methods for their synthesis and pharmaceutical preparation” (Privates Institut fur Biomedizinische Forschung und Beratung, priority 1999, dated 2005).
